Tests used:
[1] = Human microsome stability assay; format: in vitro ADME; details: human liver microsomes, 1 μM test compound, 0.5 mg/mL microsomal protein, 37° C., pH 7.4, 0-30 minutes
Method in brief: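 Parent compound remaining was measured by LC-MS/MS at 0, 3, 6, 9, 15 and 30 min, following ACN quench. Reactions held 1 μM compound and 0.5 mg/mL human liver microsomal protein in pH 7.4 phosphate buffer at 37 °C, started by NADPH regeneration (1 mM NADP, 1 mM MgCl2); controls lacked NADPH.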

[2] = test system: HBeAg (surrogate marker for cccDNA) in HepDES19 cells; assay: Engineered HepDES19 primary screen assay (HBeAg ELISA); format: cell-based, HBV; details: Hepatitis B virus, HepDES19, 120 h, read-out: IC50 (HBeAg level, HepDES19 primary screen assay), HepDES19 cells, 5 days compound incubation, HBeAg ELISA
Method in brief: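 IC50 values come from 4-parameter logistic fits of HBeAg ELISA signal, the cccDNA surrogate, with CCK-8 run in parallel for viability. Compounds at half-log dilutions with 1% DMSO were applied for 5 days at 37 °C to HepDES19 cells previously cultured 8 days without Tet.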

SMILES | Clearance of Human microsome [1] [mL/min/kg] | IC50 [2] [nM]
COc1cc(-c2cc(=O)c3cccc(Cl)c3o2)c(O[C@H]2C[C@H](C(=O)NS(C)(=O)=O)C2)cc1Br [Example B053-B, Trans-3-[5-bromo-2-(8-chloro-4-oxo-chromen-2-yl)-4-methoxy-phenoxy]-N-methylsulfonyl-cyclobutanecarboxamide] | 6.15 | 912
COc1cc(-c2cc(=O)c3cccc(Cl)c3o2)c(O[C@H]2C[C@@H](C(=O)NS(=O)(=O)C3CC3)C2)cc1Br [Example B054, Cis-3-[5-bromo-2-(8-chloro-4-oxo-chromen-2-yl)-4-methoxy-phenoxy]-N-cyclopropylsulfonyl-cyclobutanecarboxamide] | 6.15 | 1650
COc1cc(O[C@H]2C[C@@H](C(=O)NS(=O)(=O)C3CC3)C2)c(-c2cc(=O)c3cccc(Cl)c3o2)cc1Br [Example B056-A, Cis-3-[4-bromo-2-(8-chloro-4-oxo-chromen-2-yl)-5-methoxy-phenoxy]-N-cyclopropylsulfonyl-cyclobutanecarboxamide] | 6.48 | 9440
COc1cc(OC2CC(C(=O)NS(C)(=O)=O)C2)c(-c2cc(=O)c3cccc(Cl)c3o2)cc1OC (centres unmarked) [Example B057, 3-[2-(8-chloro-4-oxo-chromen-2-yl)-4,5-dimethoxy-phenoxy]-N-methylsulfonyl-cyclobutanecarboxamide] | 6.15 | 1080
NS(=O)(=O)CCCOc1cc(C(F)(F)F)ccc1-c1cc(=O)c2cccc(Cl)c2o1 [Example B072, 3-[2-(8-chloro-4-oxo-chromen-2-yl)-5-(trifluoromethyl)phenoxy]propane-1-sulfonamide] | 8.89 | 950
O=C(O)[C@@H]1C[C@@H](Oc2cc(C(F)(F)F)ccc2-c2cc(=O)c3cccc(Cl)c3o2)CN1S(=O)(=O)C1CC1 [Example B077] | 6.15 | 657
O=C(O)[C@@H]1C[C@H](Oc2cc(C(F)(F)F)ccc2-c2cc(=O)c3cccc(Cl)c3o2)CN1S(=O)(=O)C1CC1 [Example B078, (2S,4S)-4-[2-(8-chloro-4-oxo-chromen-2-yl)-5-(trifluoromethyl)phenoxy]-1-cyclopropylsulfonyl-pyrrolidine-2-carboxylic acid] | 6.15 | 541
O=C(O)[C@@H]1C[C@H](Oc2cc(C(F)(F)F)ccc2-c2cc(=O)c3cccc(Cl)c3o2)CN1S(=O)(=O)c1ccccc1 [Example B080, (2S,4S)-1-(benzenesulfonyl)-4-[2-(8-chloro-4-oxo-chromen-2-yl)-5-(trifluoromethyl)phenoxy]pyrrolidine-2-carboxylic acid] | 6.15 | 1200
Cc1cc(-c2cc(=O)c3cccc(Cl)c3o2)c(O[C@H]2C[C@@H](C(=O)O)N(S(=O)(=O)c3ccccc3)C2)cc1Cl [Example B084, (2S,4S)-1-(benzenesulfonyl)-4-[5-chloro-2-(8-chloro-4-oxo-chromen-2-yl)-4-methyl-phenoxy]pyrrolidine-2-carboxylic acid] | 6.15 | 533
O=C(O)[C@@H]1C[C@H](Oc2cc(Br)ccc2-c2cc(=O)c3cccc(Cl)c3o2)CN1C(=O)c1ccccc1 [Example B086] | 6.15 | 4890
O=C(O)[C@H]1C[C@H](Oc2cc(C(F)(F)F)ccc2-c2cc(=O)c3cccc(Cl)c3o2)CN1S(=O)(=O)c1ccccc1 [Example B087, (2R,4S)-1-(benzenesulfonyl)-4-[2-(8-chloro-4-oxo-chromen-2-yl)-5-(trifluoromethyl)phenoxy]pyrrolidine-2-carboxylic acid] | 6.15 | 3000
O=C(O)[C@H]1C[C@@H](Oc2cc(C(F)(F)F)ccc2-c2cc(=O)c3cccc(Cl)c3o2)CN1S(=O)(=O)c1ccccc1 [Example B088, (2R,4R)-1-(benzenesulfonyl)-4-[2-(8-chloro-4-oxo-chromen-2-yl)-5-(trifluoromethyl)phenoxy]pyrrolidine-2-carboxylic acid] | 6.15 | 1850
O=C(O)COCCCOc1cc(C(F)(F)F)ccc1-c1cc(=O)c2cccc(Cl)c2o1 [Example C001, 2-[3-[2-(8-chloro-4-oxo-chromen-2-yl)-5-(trifluoromethyl)phenoxy]propoxy]acetic acid] | 6.15 | 3050
COC(=O)C1CC(OCCOc2cc(Br)ccc2-c2cc(=O)c3cccc(Cl)c3o2)C1 (centres unmarked) [Example C003a, methyl 3-[2-[5-bromo-2-(8-chloro-4-oxo-chromen-2-yl)phenoxy]ethoxy]cyclobutanecarboxylate] | 6.15 | 400
O=C(O)COCCOc1cc(C(F)(F)F)ccc1-c1cc(=O)c2cccc(Cl)c2o1 [Example C005, 2-[2-[2-(8-chloro-4-oxo-chromen-2-yl)-5-(trifluoromethyl)phenoxy]ethoxy]acetic acid] | 8.08 | 17700
O=C(O)COCCCOc1cc(Cl)ccc1-c1cc(=O)c2cccc(Cl)c2o1 [Example C009, 2-[3-[5-chloro-2-(8-chloro-4-oxo-chromen-2-yl)phenoxy]propoxy]acetic acid] | 6.15 | 2660
COc1cc(OCCCOCC(=O)O)c(-c2cc(=O)c3cccc(Cl)c3o2)cc1OC [Example C012, 2-[3-[2-(8-chloro-4-oxo-chromen-2-yl)-4,5-dimethoxy-phenoxy]propoxy]acetic acid] | 6.15 | 5260
Cc1cc(-c2cc(=O)c3cccc(Br)c3o2)c(OCCCOCC(=O)O)cc1Cl [Example C018, 2-[3-[2-(8-bromo-4-oxo-chromen-2-yl)-5-chloro-4-methyl-phenoxy]propoxy]acetic acid] | 6.74 | 4820
COc1cc(-c2cc(=O)c3cccc(Cl)c3o2)c(OCCOCC(=O)O)cc1Br [Example C020, 2-[2-[5-bromo-2-(8-chloro-4-oxo-chromen-2-yl)-4-methoxy-phenoxy]ethoxy]acetic acid] | 6.15 | 5550
Cc1cc(-c2cc(=O)c3cccc(Cl)c3o2)c(OCCOCC(=O)O)cc1Br [Example C021, 2-[2-[5-bromo-2-(8-chloro-4-oxo-chromen-2-yl)-4-methyl-phenoxy]ethoxy]acetic acid] | 7.66 | 9250
COc1cc(OCCOCC(=O)O)c(-c2cc(=O)c3cccc(Cl)c3o2)cc1OC [Example C022, 2-[2-[2-(8-chloro-4-oxo-chromen-2-yl)-4,5-dimethoxy-phenoxy]ethoxy]acetic acid] | 6.15 | 5530
O=C(O)COCCOc1cc(OC(F)(F)F)ccc1-c1cc(=O)c2cccc(Cl)c2o1 [Example C023, 2-[2-[2-(8-chloro-4-oxo-chromen-2-yl)-5-(trifluoromethoxy)phenoxy]ethoxy]acetic acid] | 6.15 | 3990
